Molecular target: S. aureus DNA gyrase (Staphylococcus aureus, UniProt P0A0K8+P20831)
Assay: DNA gyrase supercoiling assay, purified gyrase and relaxed plasmid DNA kit
Type: biochemical

S. aureus DNA gyrase, sequence (P20831 whole entry): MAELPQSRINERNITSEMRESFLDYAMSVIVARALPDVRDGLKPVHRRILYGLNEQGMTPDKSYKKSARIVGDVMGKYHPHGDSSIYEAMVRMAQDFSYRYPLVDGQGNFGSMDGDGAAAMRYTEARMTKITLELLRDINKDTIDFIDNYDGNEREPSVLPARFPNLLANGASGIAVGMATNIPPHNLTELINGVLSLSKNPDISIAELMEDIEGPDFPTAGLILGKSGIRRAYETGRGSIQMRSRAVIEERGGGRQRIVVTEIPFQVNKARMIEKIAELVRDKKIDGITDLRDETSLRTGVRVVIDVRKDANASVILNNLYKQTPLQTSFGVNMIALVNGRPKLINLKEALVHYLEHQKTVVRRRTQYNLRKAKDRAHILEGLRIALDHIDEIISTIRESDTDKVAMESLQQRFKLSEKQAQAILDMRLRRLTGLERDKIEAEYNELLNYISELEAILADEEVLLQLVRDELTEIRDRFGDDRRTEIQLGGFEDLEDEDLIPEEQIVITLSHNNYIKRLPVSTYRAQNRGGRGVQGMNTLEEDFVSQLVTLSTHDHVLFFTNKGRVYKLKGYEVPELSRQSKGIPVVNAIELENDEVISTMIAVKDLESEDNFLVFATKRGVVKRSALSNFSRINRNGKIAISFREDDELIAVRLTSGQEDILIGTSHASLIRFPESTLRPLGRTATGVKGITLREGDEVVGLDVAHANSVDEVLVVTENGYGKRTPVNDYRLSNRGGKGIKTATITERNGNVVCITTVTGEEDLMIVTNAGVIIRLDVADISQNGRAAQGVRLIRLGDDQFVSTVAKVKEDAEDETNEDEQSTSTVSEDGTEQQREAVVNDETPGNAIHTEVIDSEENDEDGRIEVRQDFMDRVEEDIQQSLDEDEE
S. aureus DNA gyrase, sequence (P0A0K8 2-644): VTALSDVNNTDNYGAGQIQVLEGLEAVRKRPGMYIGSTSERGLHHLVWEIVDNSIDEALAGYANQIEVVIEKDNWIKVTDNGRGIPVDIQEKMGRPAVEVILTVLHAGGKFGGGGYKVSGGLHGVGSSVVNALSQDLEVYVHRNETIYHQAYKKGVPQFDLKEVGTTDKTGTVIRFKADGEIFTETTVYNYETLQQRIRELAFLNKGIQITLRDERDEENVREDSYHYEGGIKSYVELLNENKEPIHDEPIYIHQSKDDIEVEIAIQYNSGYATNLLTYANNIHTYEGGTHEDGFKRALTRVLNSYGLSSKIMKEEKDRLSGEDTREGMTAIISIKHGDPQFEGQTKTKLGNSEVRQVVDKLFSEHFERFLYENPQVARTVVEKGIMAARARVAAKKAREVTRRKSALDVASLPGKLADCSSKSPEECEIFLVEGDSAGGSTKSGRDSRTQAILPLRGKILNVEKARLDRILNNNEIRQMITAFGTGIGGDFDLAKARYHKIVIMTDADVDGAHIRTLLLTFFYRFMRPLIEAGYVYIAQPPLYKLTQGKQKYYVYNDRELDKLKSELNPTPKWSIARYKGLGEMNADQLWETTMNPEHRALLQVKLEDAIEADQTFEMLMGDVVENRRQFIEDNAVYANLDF

COc1ccc(NC(=O)CNNC(=O)c2cc(-c3ccc(Br)cc3)nc3ccccc23)cc1 [6b, 2-(2-(2-(4-Bromophenyl)quinoline-4-carbonyl)hydrazinyl)-N-(4-methoxyphenyl)acetamide]
IC50: 33.6 µM

N=C1CC(N)=NN1C(=O)c1cc(-c2ccc(Br)cc2)nc2ccccc12 [compound 10, (3-Amino-5-imino-4,5-dihydro-1H-pyrazol-1-yl)(2-(4-bromophenyl)quinolin-4-yl)methanone]
IC50: 8.45 µM
